Test results taken from US8455475B2 (Gruenenthal GmbH, priority 2009, dated 2013).

molecular target: T1, rat B1R (bradykinin receptor 1) (Rattus norvegicus, UniProt P97583); test: FLIPR Ca2+ assay (Fluo-4) on CHO K1 cells stably transfected with the B1R gene of the rat (rB1R cells): % inhibition at 10 μM / IC50, agonist Des-Arg9-bradykinin; assay type: cell-based; details: CHO-K1, rat B1R
T1 construct: expressed in transfected cells; host or cells: CHO K1 cells
T1 sequence (P97583 1-337): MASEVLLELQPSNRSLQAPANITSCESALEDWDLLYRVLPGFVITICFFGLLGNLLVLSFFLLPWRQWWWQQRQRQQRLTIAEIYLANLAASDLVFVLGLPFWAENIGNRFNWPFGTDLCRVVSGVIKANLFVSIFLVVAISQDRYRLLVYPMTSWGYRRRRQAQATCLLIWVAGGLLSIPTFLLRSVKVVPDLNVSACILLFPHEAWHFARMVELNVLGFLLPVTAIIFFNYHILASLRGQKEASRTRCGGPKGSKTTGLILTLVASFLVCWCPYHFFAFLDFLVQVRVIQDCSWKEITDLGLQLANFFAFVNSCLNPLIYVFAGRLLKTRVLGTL
How it was run: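 Stably transfected CHO K1 cells loaded with Fluo-4 and read on FLIPR (λex 488, λem 540 nm; peak fluorescence). Test substance (10 μM) added first, then after 10–20 min the agonist at EC80; % inhibition versus maximum achievable inhibition. IC50 from several concentrations, n=2–3, N≥2.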

inhibition at 10 µM [%] | SMILES
93 | Cc1cccc(Cl)c1C(=O)NC1CCc2ccc(C(=O)N3CCC4(CCN(Cc5ccc6c(c5)nnn6C)CC4)C3)cc21 (stereo not drawn) [IND_CC-766, 2-Chloro-6-methyl-N-[6-[8-[(1-methyl-1H-benzotriazol-5-yl)-methyl]-2,8-diazaspiro[4.5]decane-2-carbonyl]-2,3-dihydro-1H-inden-1-yl]-benzamide]
73 | Cc1cccc(Cl)c1C(=O)NC1CCc2ccc(C(=O)N3CCC4(CCN(CC(C)C)CC4)C3)cc21 (stereo not drawn) [IND_CC-767, 2-Chloro-6-methyl-N-[6-[8-(2-methyl-propyl)-2,8-diazaspiro[4.5]decane-2-carbonyl]-2,3-dihydro-1H-inden-1-yl]-benzamide]
79 | CCC(CC)CN1CCC2(CC1)CCN(C(=O)c1ccc3c(c1)C(NC(=O)c1c(C)cccc1Cl)CC3)C2 (stereo not drawn) [IND_CC-768, 2-Chloro-N-[6-[8-(2-ethyl-butyl)-2,8-diazaspiro[4.5]decane-2-carbonyl]-2,3-dihydro-1H-inden-1-yl]-6-methyl-benzamide]
91 | Cc1cccc(Cl)c1C(=O)NC1CCc2ccc(C(=O)N3CCC4(CCN(CCc5ccccc5)CC4)C3)cc21 (stereo not drawn) [IND_CC-769, 2-Chloro-6-methyl-N-[6-(8-phenethyl-2,8-diazaspiro[4.5]decane-2-carbonyl)-2,3-dihydro-1H-inden-1-yl]-benzamide]
109 | Cc1cccc(Cl)c1C(=O)NC1CCc2ccc(C(=O)N3CCC4(CCN(CCCc5cccc(F)c5)CC4)C3)cc21 (stereo not drawn) [IND_CC-770, 2-Chloro-N-[6-[8-[3-(3-fluorophenyl)-propyl]-2,8-diazaspiro[4.5]decane-2-carbonyl]-2,3-dihydro-1H-inden-1-yl]-6-methyl-benzamide]
108 | Cc1cccc(Cl)c1C(=O)NC1CCc2ccc(C(=O)N3CCC4(CCN(CCCc5ccc(F)cc5)CC4)C3)cc21 (stereo not drawn) [IND_CC-771, 2-Chloro-N-[6-[8-[3-(4-fluorophenyl)-propyl]-2,8-diazaspiro[4.5]decane-2-carbonyl]-2,3-dihydro-1H-inden-1-yl]-6-methyl-benzamide]
52 | CCn1cc(CN2CCC3(CC2)CCN(C(=O)c2ccc4c(c2)C(NC(=O)c2c(F)cccc2Cl)CC4)C3)c(C)n1 (stereo not drawn) [IND_CC-772, 2-Chloro-N-[6-[8-[(1-ethyl-3-methyl-1H-pyrazol-4-yl)-methyl]-2,8-diazaspiro-[4.5]decane-2-carbonyl]-2,3-dihydro-1H-inden-1-yl]-6-fluoro-benzamide]
80 | CN(C)c1ncc(CN2CCC3(CC2)CCN(C(=O)c2ccc4c(c2)C(NC(=O)c2c(F)cccc2Cl)CC4)C3)cn1 (stereo not drawn) [IND_CC-773, 2-Chloro-N-[6-[8-[(2-dimethylamino-pyrimidin-5-yl)-methyl]-2,8-diazaspiro-[4.5]decane-2-carbonyl]-2,3-dihydro-1H-inden-1-yl]-6-fluoro-benzamide]
81 | O=C(NC1CCc2ccc(C(=O)N3CCC4(CCN(Cc5ccc6ncccc6c5)CC4)C3)cc21)c1c(F)cccc1Cl (stereo not drawn) [IND_CC-774, 2-Chloro-6-fluoro-N-[6-[8-(quinolin-6-yl-methyl)-2,8-diazaspiro[4.5]decane-2-carbonyl]-2,3-dihydro-1H-inden-1-yl]-benzamide]
98 | O=C(NC1CCc2ccc(C(=O)N3CCC4(CCN(Cc5ccc6nccnc6c5)CC4)C3)cc21)c1c(F)cccc1Cl (stereo not drawn) [IND_CC-775, 2-Chloro-6-fluoro-N-[6-[8-(quinoxalin-6-yl-methyl)-2,8-diazaspiro[4.5]decane-2-carbonyl]-2,3-dihydro-1H-inden-1-yl]-benzamide]
99 | Cn1nnc2cc(CN3CCC4(CC3)CCN(C(=O)c3ccc5c(c3)C(NC(=O)c3c(F)cccc3Cl)CC5)C4)ccc21 (stereo not drawn) [IND_CC-776, 2-Chloro-6-fluoro-N-[6-[8-[(1-methyl-1H-benzotriazol-5-yl)-methyl]-2,8-diazaspiro[4.5]decane-2-carbonyl]-2,3-dihydro-1H-inden-1-yl]-benzamide]
83 | CC(C)CN1CCC2(CC1)CCN(C(=O)c1ccc3c(c1)C(NC(=O)c1c(F)cccc1Cl)CC3)C2 (stereo not drawn) [IND_CC-777, 2-Chloro-6-fluoro-N-[6-[8-(2-methyl-propyl)-2,8-diazaspiro[4.5]decane-2-carbonyl]-2,3-dihydro-1H-inden-1-yl]-benzamide]
105 | CCC(CC)CN1CCC2(CC1)CCN(C(=O)c1ccc3c(c1)C(NC(=O)c1c(F)cccc1Cl)CC3)C2 (stereo not drawn) [IND_CC-778, 2-Chloro-N-[6-[8-(2-ethyl-butyl)-2,8-diazaspiro[4.5]decane-2-carbonyl]-2,3-dihydro-1H-inden-1-yl]-6-fluoro-benzamide]
69 | O=C(NC1CCc2ccc(C(=O)N3CCC4(CCN(CC5CCCCC5)CC4)C3)cc21)c1c(F)cccc1Cl (stereo not drawn) [IND_CC-779, 2-Chloro-N-[6-[8-(cyclohexyl-methyl)-2,8-diazaspiro[4.5]decane-2-carbonyl]-2,3-dihydro-1H-inden-1-yl]-6-fluoro-benzamide]
101 | O=C(NC1CCc2ccc(C(=O)N3CCC4(CCN(CCc5ccccc5)CC4)C3)cc21)c1c(F)cccc1Cl (stereo not drawn) [IND_CC-780, 2-Chloro-6-fluoro-N-[6-(8-phenethyl-2,8-diazaspiro[4.5]decane-2-carbonyl)-2,3-dihydro-1H-inden-1-yl]-benzamide]
106 | O=C(NC1CCc2ccc(C(=O)N3CCC4(CCN(CCCc5cccc(F)c5)CC4)C3)cc21)c1c(F)cccc1Cl (stereo not drawn) [IND_CC-781, 2-Chloro-6-fluoro-N-[6-[8-[3-(3-fluorophenyl)-propyl]-2,8-diazaspiro[4.5]decane-2-carbonyl]-2,3-dihydro-1H-inden-1-yl]-benzamide]
107 | O=C(NC1CCc2ccc(C(=O)N3CCC4(CCN(CCCc5ccc(F)cc5)CC4)C3)cc21)c1c(F)cccc1Cl (stereo not drawn) [IND_CC-782, 2-Chloro-6-fluoro-N-[6-[8-[3-(4-fluorophenyl)-propyl]-2,8-diazaspiro[4.5]decane-2-carbonyl]-2,3-dihydro-1H-inden-1-yl]-benzamide]
102 | O=C(NC1CCc2ccc(C(=O)N3CCC4(CCN(Cc5ccc[nH]5)CC4)CC3)cc21)c1c(F)cccc1Cl (stereo not drawn) [IND_CC-783, 2-Chloro-6-fluoro-N-[6-[9-(1H-pyrrol-2-yl-methyl)-3,9-diazaspiro[5.5]undecane-3-carbonyl]-2,3-dihydro-1H-inden-1-yl]-benzamide]
99 | O=C(NC1CCc2ccc(C(=O)N3CCC4(CCN(Cc5ccccn5)CC4)CC3)cc21)c1c(F)cccc1Cl (stereo not drawn) [IND_CC-784, 2-Chloro-6-fluoro-N-[6-[9-(pyridin-2-yl-methyl)-3,9-diazaspiro[5.5]undecane-3-carbonyl]-2,3-dihydro-1H-inden-1-yl]-benzamide]
98 | O=C(NC1CCc2ccc(C(=O)N3CCC4(CCN(Cc5ccncc5)CC4)CC3)cc21)c1c(F)cccc1Cl (stereo not drawn) [IND_CC-785, 2-Chloro-6-fluoro-N-[6-[9-(pyridin-4-yl-methyl)-3,9-diazaspiro[5.5]undecane-3-carbonyl]-2,3-dihydro-1H-inden-1-yl]-benzamide]
104 | O=C(NC1CCc2ccc(C(=O)N3CCC4(CCN(Cc5cccnc5)CC4)CC3)cc21)c1c(F)cccc1Cl (stereo not drawn) [IND_CC-786, 2-Chloro-6-fluoro-N-[6-[9-(pyridin-3-yl-methyl)-3,9-diazaspiro[5.5]undecane-3-carbonyl]-2,3-dihydro-1H-inden-1-yl]-benzamide]
93 | Cn1cccc1CN1CCC2(CC1)CCN(C(=O)c1ccc3c(c1)C(NC(=O)c1c(F)cccc1Cl)CC3)CC2 (stereo not drawn) [IND_CC-787, 2-Chloro-6-fluoro-N-[6-[9-[(1-methyl-1H-pyrrol-2-yl)-methyl]-3,9-diazaspiro[5.5]undecane-3-carbonyl]-2,3-dihydro-1H-inden-1-yl]-benzamide]
71 | O=C(NC1CCc2ccc(C(=O)N3CCC4(CCN(Cc5c(F)cccc5F)CC4)CC3)cc21)c1c(F)cccc1Cl (stereo not drawn) [IND_CC-788, 2-Chloro-N-[6-[9-[(2,6-difluoro-phenyl)-methyl]-3,9-diazaspiro[5.5]undecane-3-carbonyl]-2,3-dihydro-1H-inden-1-yl]-6-fluoro-benzamide]
98 | O=C(NC1CCc2ccc(C(=O)N3CCC4(CCN(Cc5ccc(F)c(F)c5)CC4)CC3)cc21)c1c(F)cccc1Cl (stereo not drawn) [IND_CC-789, 2-Chloro-N-[6-[9-[(3,4-difluoro-phenyl)-methyl]-3,9-diazaspiro[5.5]undecane-3-carbonyl]-2,3-dihydro-1H-inden-1-yl]-6-fluoro-benzamide]
96 | O=C(NC1CCc2ccc(C(=O)N3CCC4(CCN(Cc5cc(F)ccc5F)CC4)CC3)cc21)c1c(F)cccc1Cl (stereo not drawn) [IND_CC-790, 2-Chloro-N-[6-[9-[(2,5-difluoro-phenyl)-methyl]-3,9-diazaspiro[5.5]undecane-3-carbonyl]-2,3-dihydro-1H-inden-1-yl]-6-fluoro-benzamide]
91 | O=C(NC1CCc2ccc(C(=O)N3CCC4(CCN(Cc5ccc(F)cc5F)CC4)CC3)cc21)c1c(F)cccc1Cl (stereo not drawn) [IND_CC-791, 2-Chloro-N-[6-[9-[(2,4-difluoro-phenyl)-methyl]-3,9-diazaspiro[5.5]undecane-3-carbonyl]-2,3-dihydro-1H-inden-1-yl]-6-fluoro-benzamide]
89 | COc1ccc(CN2CCC3(CC2)CCN(C(=O)c2ccc4c(c2)C(NC(=O)c2c(F)cccc2Cl)CC4)CC3)cc1F (stereo not drawn) [IND_CC-792, 2-Chloro-6-fluoro-N-[6-[9-[(3-fluoro-4-methoxy-phenyl)-methyl]-3,9-diazaspiro[5.5]undecane-3-carbonyl]-2,3-dihydro-1H-inden-1-yl]-benzamide]
